Here are results for one compound from patent US9394268B2, “(E)-1-(5-methoxy-2,2-dimethyl-2H-chromen-8-yl)-3-(4-methoxyphenyl)prop-2-en-1-one and analogs thereof, as well as preparation method and use thereof” (Sichuan University, priority 2012, dated 2016).

Structures are written as SMILES.

The subject of one assay is HCT116. Briefly: Cell proliferative assay (MTT), HCT116. The class given is cell-based. The settings on record: Homo sapiens, HCT-116, 72 h incubation, read-out: IC50s HCT116. An outline of the steps:
(§1)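 IC50 values (mean±SEM, at least three independent experiments) come from dose-response curves of MTT absorbance at 590 nm. Treatment lasted 72 h, starting 24 h after seeding.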

The test system of the next assay is K562. Briefly: Cell proliferative assay (MTT), K562. Particulars: Homo sapiens, 72 h incubation, read-out: IC50s K562. The class given is cell-based. An outline of the steps:
as §1

The subject of another assay is A549 cells. Briefly: Human lung cancer A549 xenograft. The settings on record: 5, 10 and 20 mg/kg intravenous once three days for eight times; vs control P<0.01. The class given is in vivo, Balbc mice. The method, then:
(3) In Vivo Anti-Tumor Activity of SKLBC-9 on Human Lung Cancer A549 Xenograft
Six-week-old female mice were obtained from Chinese Academy of Medical Science (Beijing, China). A549 cells (5×10^6 in 100 μl saline) were injected subcutaneously into the right flanks of Balbc mice. When the tumor reached about 100 mm^3, mice were selected and randomly divided into five groups including control, cisplatin (1.5 mg/kg) and SKLBC-9 (5,10,20 mg/kg). The animals were intravenous injection with SKLBC-9 (5, 10 and 20 mg/kg) or vehicle once three days for eight times. Tumor burden was measured every 2 or 3 days with a caliper (calculated volume [mm^3]=n/6× length×width×width). After treatment, mice were killed and tumors were collected and weighted.

A further assay has as its system HepG2. Briefly: Cell proliferative assay (MTT), HepG2. It is filed as cell-based. The settings on record: Homo sapiens, 72 h incubation, read-out: IC50s HepG2. The procedure, abridged:
as §1

A further assay deals with SPC-A1 cells. In words: Human lung cancer SPC-A1 xenograft. It is filed as in vivo, Balb/c nude mice. The settings on record: 10, 20 mg/kg intravenous every three days for eight times; vs vehicle control. The method, then:
(4) In Vivo Anti-Tumor Activity of SKLBC-9 on Human Lung Cancer SPC-A1 Xenograft
Six-week-old Balb/c nude mice were obtained from Chinese Academy of Medical Science (Beijing, China). SPC-A1 cells (5×10^6 in 100 μl saline) were injected subcutaneously into the right flanks of the mice. 14 days after cell injection, forty mice were selected and randomly divided into four groups including control, cisplatin (1.5 mg/kg) and SKLBC-9 (10, 20 mg/kg). The animals were intravenously injected with SKLBC-9 or vehicle every three days for eight times. Tumor burden and animal body weight was measured every 2 or 3 days. The survival rate was also recorded. After treatment, mice were killed and tumors were collected and weighted.
(In xenograft studies the graft and the host belong to different species.)

Another assay deals with SW620. In words: Cell proliferative assay (MTT), SW620. The settings on record: Homo sapiens, SW-620, 72 h incubation, read-out: IC50s SW620. It is filed as cell-based. An outline of the steps:
as §1

A further assay relates to tumor cells. Briefly: Cell proliferative assay (MTT), summary over tumor cells. The class given is cell-based. The settings on record: summary in words of Table 1; colon, liver, leukemia lines. The method, then:
The synthesized compounds were evaluated for their cytotoxin activity against suspended tumor cells. These cells were seeded on 96-well plates and incubated for 24 h. Selected compounds were added at various doses and incubated for 72 h, MTT was then added, and the absorbance was measured at a wavelength of 590 nm. IC50 values are expressed as the mean±SEM from the dose-response curves of at least three independent experiments.

The test system of the next assay is HT29. Briefly: Cell proliferative assay (MTT), HT29. The class given is cell-based. Particulars: Homo sapiens, HT-29, 72 h incubation, read-out: IC50s HT29. An outline of the steps: as §1

For the compound `COc1ccc(C(=O)/C=C/c2ccc(N(C)C)cc2)c2c1C=CC(C)(C)O2` [SKLBC-9, (E)-3-(4-(dimethylamino)phenyl)-1-(5-methoxy-2,2-dimethyl-2H-chromen-8-yl)prop-2-en-1-one], the IC50 with HCT116 worked out at 1.63 µM; in the assay on K562, 3.5 µM; in the assay on HepG2, 0.73 µM; in the assay on SW620, 0.57 µM; in the assay on HT29, 1.87 µM. In addition, the tumor growth entry in the assay with A549 cells was “suppress tumor growth”. Also, the average tumor weight result in the assay with SPC-A1 cells is “significantly lower”. Besides, in the assay with SPC-A1 cells, the growth of tumor result is on record as “significantly inhibited”. Moreover, the “inhibitory activity against tumor cells” value with tumor cells is “better inhibitory activity”.
